Experiments:
[1] = target: T1, Mitogen-activated protein kinase kinase kinase 2 (Homo sapiens) (UniProt Q9Y2U5); experiment: Inhibition of human recombinant MAP3K2 at 500 nM in presence of ATP by radiometric assay relative to control
T1 sequence (whole entry): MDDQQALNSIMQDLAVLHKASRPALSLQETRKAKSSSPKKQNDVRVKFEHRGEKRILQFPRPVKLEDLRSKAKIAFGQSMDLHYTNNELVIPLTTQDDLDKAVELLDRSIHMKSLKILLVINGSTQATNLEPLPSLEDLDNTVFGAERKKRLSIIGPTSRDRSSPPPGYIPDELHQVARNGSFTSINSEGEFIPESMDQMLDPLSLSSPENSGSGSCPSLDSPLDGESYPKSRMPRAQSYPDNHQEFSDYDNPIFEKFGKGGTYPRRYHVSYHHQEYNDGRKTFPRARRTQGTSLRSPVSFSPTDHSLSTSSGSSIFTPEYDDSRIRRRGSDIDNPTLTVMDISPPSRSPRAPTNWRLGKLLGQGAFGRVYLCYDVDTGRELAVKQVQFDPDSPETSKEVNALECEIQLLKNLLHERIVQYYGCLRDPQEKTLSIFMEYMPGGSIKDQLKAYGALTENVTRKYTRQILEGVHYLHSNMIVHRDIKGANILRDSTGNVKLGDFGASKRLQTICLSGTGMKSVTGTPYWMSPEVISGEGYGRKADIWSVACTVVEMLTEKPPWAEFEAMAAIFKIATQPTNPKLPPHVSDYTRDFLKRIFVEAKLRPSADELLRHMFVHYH

[2] = target: T2, Serine/threonine-protein kinase TAO1 (Homo sapiens) (UniProt Q7L7X3); experiment: Inhibition of human recombinant TAO1 at 15 nM related to control ULK1
T2 sequence (whole entry): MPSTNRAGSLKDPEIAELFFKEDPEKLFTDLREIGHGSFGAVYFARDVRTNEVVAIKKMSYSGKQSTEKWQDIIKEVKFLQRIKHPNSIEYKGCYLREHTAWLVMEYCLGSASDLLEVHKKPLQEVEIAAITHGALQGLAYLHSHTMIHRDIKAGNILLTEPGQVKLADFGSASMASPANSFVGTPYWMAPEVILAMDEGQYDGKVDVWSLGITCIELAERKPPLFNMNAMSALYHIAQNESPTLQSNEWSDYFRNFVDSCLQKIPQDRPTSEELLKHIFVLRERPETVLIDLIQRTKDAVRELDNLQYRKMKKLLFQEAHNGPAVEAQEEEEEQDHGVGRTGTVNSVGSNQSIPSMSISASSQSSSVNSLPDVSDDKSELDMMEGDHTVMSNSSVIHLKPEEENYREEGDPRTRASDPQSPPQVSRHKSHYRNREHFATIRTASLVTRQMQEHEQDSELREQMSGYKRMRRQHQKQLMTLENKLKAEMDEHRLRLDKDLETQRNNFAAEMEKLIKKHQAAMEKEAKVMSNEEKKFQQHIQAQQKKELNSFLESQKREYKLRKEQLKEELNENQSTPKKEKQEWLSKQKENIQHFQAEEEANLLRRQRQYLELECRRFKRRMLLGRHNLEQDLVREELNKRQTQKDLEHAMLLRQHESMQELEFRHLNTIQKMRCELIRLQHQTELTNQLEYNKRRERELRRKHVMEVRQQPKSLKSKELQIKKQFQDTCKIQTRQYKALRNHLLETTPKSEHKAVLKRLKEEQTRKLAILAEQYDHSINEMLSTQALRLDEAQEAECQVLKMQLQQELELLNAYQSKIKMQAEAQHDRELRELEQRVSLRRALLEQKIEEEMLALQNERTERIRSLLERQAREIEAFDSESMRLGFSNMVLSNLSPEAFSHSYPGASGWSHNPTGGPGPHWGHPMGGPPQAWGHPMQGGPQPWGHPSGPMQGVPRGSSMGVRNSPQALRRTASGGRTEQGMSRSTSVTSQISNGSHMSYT

[3] = target: Aurora kinase B (Homo sapiens) (UniProt Q96GD4); experiment: Inhibition of human recombinant AurB at 15 nM related to control ULK1
Chain of Aurora kinase B (Homo sapiens) (Q96GD4 whole entry): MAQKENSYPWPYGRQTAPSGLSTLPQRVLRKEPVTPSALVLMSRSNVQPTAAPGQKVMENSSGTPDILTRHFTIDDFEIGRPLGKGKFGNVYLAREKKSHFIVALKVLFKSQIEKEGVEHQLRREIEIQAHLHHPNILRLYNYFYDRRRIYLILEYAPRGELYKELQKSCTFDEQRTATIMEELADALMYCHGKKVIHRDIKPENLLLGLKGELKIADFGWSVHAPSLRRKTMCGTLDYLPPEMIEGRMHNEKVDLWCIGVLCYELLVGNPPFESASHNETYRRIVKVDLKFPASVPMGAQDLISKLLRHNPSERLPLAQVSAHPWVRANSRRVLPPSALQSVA

[4] = target: Death-associated protein kinase 2 (Homo sapiens) (UniProt Q9UIK4); experiment: Inhibition of human recombinant DAPK2 at 15 nM related to control ULK1
Chain of Death-associated protein kinase 2 (Homo sapiens) (Q9UIK4 whole entry, looked up): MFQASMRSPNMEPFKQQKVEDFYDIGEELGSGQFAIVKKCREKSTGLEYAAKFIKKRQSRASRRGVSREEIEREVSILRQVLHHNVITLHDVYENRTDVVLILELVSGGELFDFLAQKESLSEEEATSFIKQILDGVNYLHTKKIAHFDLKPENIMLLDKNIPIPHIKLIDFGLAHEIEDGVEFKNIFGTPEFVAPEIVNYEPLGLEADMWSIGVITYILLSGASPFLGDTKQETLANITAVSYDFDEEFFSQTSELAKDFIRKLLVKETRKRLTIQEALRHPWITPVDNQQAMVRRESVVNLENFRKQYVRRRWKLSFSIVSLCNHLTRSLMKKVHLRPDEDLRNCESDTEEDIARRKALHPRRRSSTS

[5] = target: T3, Testis-specific serine/threonine-protein kinase 4 (Homo sapiens) (UniProt Q6SA08); experiment: Inhibition of human recombinant TSSK4 at 15 nM related to control ULK1
T3 sequence (whole entry): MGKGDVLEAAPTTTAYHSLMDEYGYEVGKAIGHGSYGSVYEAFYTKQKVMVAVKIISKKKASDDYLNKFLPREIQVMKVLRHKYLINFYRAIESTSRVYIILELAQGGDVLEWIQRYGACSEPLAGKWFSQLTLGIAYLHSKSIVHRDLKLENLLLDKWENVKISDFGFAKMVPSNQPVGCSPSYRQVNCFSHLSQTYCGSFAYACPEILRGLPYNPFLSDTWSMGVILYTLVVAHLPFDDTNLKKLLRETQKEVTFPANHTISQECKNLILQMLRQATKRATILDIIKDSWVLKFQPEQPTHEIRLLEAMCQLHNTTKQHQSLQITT

[6] = target: Serine/threonine-protein kinase PAK 4 (Homo sapiens) (UniProt O96013); experiment: Inhibition of human recombinant PAK4 at 15 nM related to control ULK1
Chain of Serine/threonine-protein kinase PAK 4 (Homo sapiens) (O96013 whole entry, looked up): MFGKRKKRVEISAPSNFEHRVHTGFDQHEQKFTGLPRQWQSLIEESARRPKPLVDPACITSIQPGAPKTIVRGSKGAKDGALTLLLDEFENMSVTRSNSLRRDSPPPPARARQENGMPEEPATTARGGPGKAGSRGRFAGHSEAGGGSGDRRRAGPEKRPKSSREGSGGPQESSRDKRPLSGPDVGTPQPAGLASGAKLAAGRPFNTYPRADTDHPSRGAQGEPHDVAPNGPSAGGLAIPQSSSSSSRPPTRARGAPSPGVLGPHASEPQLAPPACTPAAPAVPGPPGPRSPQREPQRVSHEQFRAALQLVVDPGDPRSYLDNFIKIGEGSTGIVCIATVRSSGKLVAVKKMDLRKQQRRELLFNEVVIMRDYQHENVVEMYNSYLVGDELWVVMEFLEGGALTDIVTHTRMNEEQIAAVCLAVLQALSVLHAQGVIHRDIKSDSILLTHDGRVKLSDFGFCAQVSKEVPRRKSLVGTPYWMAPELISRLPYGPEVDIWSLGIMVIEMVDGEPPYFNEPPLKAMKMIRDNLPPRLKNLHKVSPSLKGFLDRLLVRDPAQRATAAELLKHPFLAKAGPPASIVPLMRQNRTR

[7] = target: RAC-alpha serine/threonine-protein kinase (Homo sapiens) (UniProt P31749); experiment: Inhibition of human recombinant AKT1 at 15 nM related to control ULK1
Chain of RAC-alpha serine/threonine-protein kinase (Homo sapiens) (P31749 whole entry): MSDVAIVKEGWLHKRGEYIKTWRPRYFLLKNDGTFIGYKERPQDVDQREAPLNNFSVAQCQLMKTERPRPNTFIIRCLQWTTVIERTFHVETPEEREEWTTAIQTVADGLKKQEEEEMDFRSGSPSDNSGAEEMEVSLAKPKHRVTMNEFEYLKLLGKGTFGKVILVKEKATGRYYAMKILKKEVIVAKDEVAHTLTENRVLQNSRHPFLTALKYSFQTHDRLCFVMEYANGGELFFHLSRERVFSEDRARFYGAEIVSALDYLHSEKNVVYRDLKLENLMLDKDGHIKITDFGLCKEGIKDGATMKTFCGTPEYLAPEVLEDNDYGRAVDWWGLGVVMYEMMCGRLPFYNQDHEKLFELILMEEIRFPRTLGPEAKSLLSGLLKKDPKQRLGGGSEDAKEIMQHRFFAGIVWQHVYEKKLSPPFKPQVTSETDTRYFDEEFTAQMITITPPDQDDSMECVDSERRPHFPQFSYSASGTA

[8] = target: Serine/threonine-protein kinase 4 (Homo sapiens) (UniProt Q13043); experiment: Inhibition of human recombinant MST1 at 15 nM related to control ULK1
Chain of Serine/threonine-protein kinase 4 (Homo sapiens) (Q13043 whole entry, looked up): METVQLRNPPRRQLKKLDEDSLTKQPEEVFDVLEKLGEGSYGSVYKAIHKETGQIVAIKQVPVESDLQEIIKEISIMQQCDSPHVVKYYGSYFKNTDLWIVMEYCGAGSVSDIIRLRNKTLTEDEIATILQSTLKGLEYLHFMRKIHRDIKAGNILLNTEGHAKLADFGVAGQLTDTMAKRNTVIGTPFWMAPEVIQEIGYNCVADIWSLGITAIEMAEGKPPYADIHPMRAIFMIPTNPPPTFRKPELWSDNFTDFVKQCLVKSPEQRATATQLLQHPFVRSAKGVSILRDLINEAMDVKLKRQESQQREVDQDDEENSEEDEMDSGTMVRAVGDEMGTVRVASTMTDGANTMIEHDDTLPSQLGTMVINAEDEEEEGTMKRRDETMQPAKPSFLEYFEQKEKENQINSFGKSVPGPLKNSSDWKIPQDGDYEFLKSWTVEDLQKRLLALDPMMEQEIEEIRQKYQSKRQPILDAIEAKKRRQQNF

[9] = target: T4, Serine/threonine-protein kinase NLK (Homo sapiens) (UniProt Q9UBE8); experiment: Inhibition of human recombinant NLK at 40 nM in presence of ATP by radiometric assay relative to control
T4 sequence (whole entry): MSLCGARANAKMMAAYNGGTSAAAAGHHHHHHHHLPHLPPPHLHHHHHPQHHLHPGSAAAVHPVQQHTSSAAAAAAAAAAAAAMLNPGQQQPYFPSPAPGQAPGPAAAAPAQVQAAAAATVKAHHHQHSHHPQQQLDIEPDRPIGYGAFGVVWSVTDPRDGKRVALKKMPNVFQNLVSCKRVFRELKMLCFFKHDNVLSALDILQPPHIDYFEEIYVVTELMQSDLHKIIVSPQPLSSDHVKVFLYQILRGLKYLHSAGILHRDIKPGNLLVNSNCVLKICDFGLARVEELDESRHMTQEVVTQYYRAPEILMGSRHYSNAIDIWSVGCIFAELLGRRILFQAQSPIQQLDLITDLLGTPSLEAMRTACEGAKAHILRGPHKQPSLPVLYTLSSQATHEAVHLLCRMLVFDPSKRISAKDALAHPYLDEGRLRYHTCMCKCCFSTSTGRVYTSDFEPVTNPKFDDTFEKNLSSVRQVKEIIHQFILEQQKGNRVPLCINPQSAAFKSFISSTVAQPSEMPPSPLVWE

Molecule `CNC(=O)c1ccccc1Oc1nc(Nc2cc(OC)c(OC)c(OC)c2)ncc1Br` has an inhibition [1] of 3%.

`CC(C)[C@H](NC(=O)c1cc(-c2cnn3cc(-c4ccc(OCCN5CCCCC5)cc4)cnc23)cs1)C(F)(F)F` was tested, and the fold change (FC) [2] was 0, the fold change (FC) [3] was 0.2 and the fold change (FC) [4] was 0.07. It also gave a fold change (FC) [5] of 0, a fold change (FC) [6] of 0 and a fold change (FC) [7] of 0. The fold change (FC) [8] was 0.03.

`O=C(N[C@@H](C1CC1)C(F)(F)F)c1cc(-c2cnn3cc(-c4ccc(F)cc4)cnc23)cs1` showed an inhibition [9] of 47%.
